Measurements as given in US9822130B2, “Triazolo-pyrazinyl derivatives useful as soluble guanylate cyclase activators” (Merck Sharp & Dohme Corp., priority 2014, dated 2017).

These compounds were tested against T1, sGC α1/β1 heterodimer stably expressed in CHO-K1 cell line (CHO-K1/sGC) (Homo sapiens, UniProt Q02108+Q02153) (assay: Cell-based sGC Functional Assay (CASA Assay), cGMP generation). Details: CHO-K1/sGC cells, 1 hr at 37° C., cGMP by HTRF, 4P fit; presence or absence of 1 μM DETA-NO not given; read-out: IP (nM) (inflection point).
T1 construct: expressed in transfected cells
T1 sequence (Q02108 1-690): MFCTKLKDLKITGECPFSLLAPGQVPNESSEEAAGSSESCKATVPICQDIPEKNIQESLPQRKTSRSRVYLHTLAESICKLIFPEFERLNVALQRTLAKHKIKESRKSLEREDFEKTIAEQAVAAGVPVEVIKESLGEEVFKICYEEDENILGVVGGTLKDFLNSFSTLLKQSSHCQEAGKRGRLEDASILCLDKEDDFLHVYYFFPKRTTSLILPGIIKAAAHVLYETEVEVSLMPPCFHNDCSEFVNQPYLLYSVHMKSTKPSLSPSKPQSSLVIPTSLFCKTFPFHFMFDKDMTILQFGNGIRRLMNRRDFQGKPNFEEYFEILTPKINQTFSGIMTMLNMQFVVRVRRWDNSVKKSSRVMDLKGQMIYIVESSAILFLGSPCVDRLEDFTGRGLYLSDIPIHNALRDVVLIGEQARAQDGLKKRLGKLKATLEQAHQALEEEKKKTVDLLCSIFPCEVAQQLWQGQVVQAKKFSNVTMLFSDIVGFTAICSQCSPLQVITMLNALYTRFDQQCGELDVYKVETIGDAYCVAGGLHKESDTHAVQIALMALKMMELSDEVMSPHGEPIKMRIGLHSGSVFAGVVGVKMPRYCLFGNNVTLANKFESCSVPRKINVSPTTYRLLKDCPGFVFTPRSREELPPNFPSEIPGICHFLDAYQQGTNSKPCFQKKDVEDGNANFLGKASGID
T1 sequence (Q02153 1-619): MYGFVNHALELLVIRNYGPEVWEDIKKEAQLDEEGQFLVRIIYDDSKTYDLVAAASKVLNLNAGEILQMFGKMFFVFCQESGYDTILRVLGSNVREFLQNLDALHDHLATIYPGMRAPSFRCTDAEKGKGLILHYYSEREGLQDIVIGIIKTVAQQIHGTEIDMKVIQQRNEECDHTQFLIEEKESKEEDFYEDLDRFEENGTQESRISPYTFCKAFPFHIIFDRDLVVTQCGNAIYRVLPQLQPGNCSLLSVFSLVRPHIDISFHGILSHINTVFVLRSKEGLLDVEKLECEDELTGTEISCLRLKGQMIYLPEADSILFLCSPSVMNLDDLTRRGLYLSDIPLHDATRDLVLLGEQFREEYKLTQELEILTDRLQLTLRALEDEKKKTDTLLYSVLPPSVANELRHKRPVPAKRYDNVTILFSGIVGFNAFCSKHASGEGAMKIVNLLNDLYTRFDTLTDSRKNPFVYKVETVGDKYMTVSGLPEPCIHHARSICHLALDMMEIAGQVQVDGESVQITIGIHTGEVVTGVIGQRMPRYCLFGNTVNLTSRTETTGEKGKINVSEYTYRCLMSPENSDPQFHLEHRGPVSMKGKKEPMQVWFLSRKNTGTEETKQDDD
Description: sGC is a heme-containing enzyme that converts GTP to secondary messenger cGMP. Increases in cGMP levels affect several physiological processes including vasorelaxation through multiple downstream pathways. […] Heme-dependent activators (HDAs) preferentially activate sGC containing a ferrous heme group. To determine the effect of sGC activators on enzyme activity, the CASA assay was developed to monitor the generation of cGMP in a cell line that stably expresses the heterodimeric sGC protein.
A CHO-K1 cell line stably expressing the sGC α1/β1 heterodimer was generated using a standard transfection protocol. CHO-K1 cells were transfected with plasmids pIREShyghsGCα1 and pIRESneo-hsGCβ1 simultaneously using FUGENE reagent. Clones that stably express both subunits were selected with hygromycin and neomycin for ˜2 weeks. Clone #7 was chosen for the assay and was designated CHO-K1/sGC. CHO-K1/sGC cells were maintained in F-K12 medium containing 10% heat-inactivated Fetal Bovine Serum (FBS), 100 μg/mL penicillin/streptomycin, 0.5 mg/mL hygromycin and 0.25 mg/mL G418. The cells were then cryopreserved in LN2. On the day of the assay, cells thawed and resuspended in EBSS Assay Buffer (Sigma, E3024) supplemented with 5 mM MgCl2, 10 mM HEPES (4-(2-hydroxyethyl)piperazine-1-ethanesulfonic acid) and 0.05% BSA (bovine serum albumin) (EAB) and cell density was then adjusted to 4×10^5/mL with EAB, IBMX (3-isobutyl-1-methylxanthin, 0.5 mM) was added to inhibit degradation of cGMP. Compounds were diluted from DMSO stock solutions and added to the assay at a final DMSO concentration of 2.5%. Cells were incubated with compounds in the presence and absence of 1 μM of Diethylenetriamine/nitric oxide adduct (DETA-NO; Sigma, 17018) for 1 hr at 37° C. At the end of the incubation period, the reaction was terminated and the cells were lysed with the detection reagents from Cisbio Kits. The level of intracellular cGMP was determined using an HTRF-based assay kit (CisBio, 62GM2PEC), which detects the displacement of a fluorescence labeled cGMP from its specific antibody. The cGMP produced by test compounds was directly compared to the maximum cGMP production (this value was set to equal 100% activation.) of the published sGC-HDA Compound A:
[drawing 300] (Example 1 in WO 2010/065275, published Jun. 10, 2010). The test compounds' activities were then expressed as a percentage of Compound A, the standard in every experiment. This percent activation was calculated either in the presence or absence of DETA-NO which was then plotted. IP and maximum fold induction was derived using ADA analysis software for 4P fit.
The compounds in the Examples of the instant invention had inflection points (IP) less than or equal to 10 μM and more particularly less than or equal to about 1 μM.

Row | EC50 | Compound
1 | 13.1 nM | CC(F)(F)c1ccc(C2(C)C(=O)Nc3nc(-c4cn5ncnc5c(CCC(F)(F)C(F)(F)F)n4)nc(N)c32)cn1 (racemic) [Example 16B, 4-amino-5-(6-(1,1-difluoroethyl)pyridin-3-yl)-5-methyl-2-(8-(3,3,4,4,4-pentafluorobutyl)-[1,2,4]triazolo[1,5-a]pyrazin-6-yl)-5H-pyrrolo[2,3-d]pyrimidin-6(7H)-one]
2 | 36.1 nM | Cc1ccc(C2(C3CC3)C(=O)Nc3nc(-c4cn5ncnc5c(CCC(F)(F)C(F)(F)F)n4)nc(N)c32)nc1 (racemic) [Example 17B, 4-amino-5-cyclopropyl-5-(5-methylpyridin-2-yl)-2-(8-(3,3,4,4,4-pentafluorobutyl)-[1,2,4]triazolo[1,5-a]pyrazin-6-yl)-5H-pyrrolo[2,3-d]pyrimidin-6(7H)-one]
3 | 43.1 nM | Cc1cnc(C2(C3CC3)C(=O)Nc3nc(-c4cn5ncnc5c(CCC(F)(F)C(F)(F)F)n4)nc(N)c32)cn1 (racemic) [Example 21B, 4-amino-5-cyclopropyl-5-(5-methylpyrazin-2-yl)-2-(8-(3,3,4,4,4-pentafluorobutyl)-[1,2,4]triazolo[1,5-a]pyrazin-6-yl)-5H-pyrrolo[2,3-d]pyrimidin-6(7H)-one]
4 | 44.2 nM | CC(F)(F)c1ccc(C2(C)C(=O)Nc3nc(-c4cn5ncnc5c(CCCC(F)(F)F)n4)nc(N)c32)cn1 (racemic) [Example 45B, 4-amino-5-(6-(1,1-difluoroethyl)pyridin-3-yl)-5-methyl-2-(8-(4,4,4-trifluorobutyl)-[1,2,4]triazolo[1,5-a]pyrazin-6-yl)-5H-pyrrolo[2,3-d]pyrimidin-6(7H)-one]
5 | 144 nM | Cc1ccc(C2(C3CC3)C(=O)Nc3nc(-c4cn5ncnc5c(CCCC(F)(F)F)n4)nc(N)c32)nc1 (racemic) [Example 47B, 4-amino-5-cyclopropyl-5-(5-methylpyridin-2-yl)-2-(8-(4,4,4-trifluorobutyl)-[1,2,4]triazolo[1,5-a]pyrazin-6-yl)-5H-pyrrolo[2,3-d]pyrimidin-6(7H)-one]
6 | 595 nM | Cc1nc(C2(C)C(=O)Nc3nc(-c4cn5ncnc5c(CCCC(F)(F)F)n4)nc(N)c32)ccc1C(F)(F)F (racemic) [Example 49B, 4-amino-5-methyl-5-(6-methyl-5-(trifluoromethyl)pyridin-2-yl)-2-(8-(4,4,4-trifluorobutyl)-[1,2,4]triazolo[1,5-a]pyrazin-6-yl)-5H-pyrrolo[2,3-d]pyrimidin-6(7H)-one]
7 | 15.1 nM | CC1(c2ncc(C(F)(F)F)cn2)C(=O)Nc2nc(-c3cn4ncnc4c(CCCC(F)(F)F)n3)nc(N)c21 (racemic) [Example 51B, 4-amino-5-methyl-2-(8-(4,4,4-trifluorobutyl)-[1,2,4]triazolo[1,5-d]pyrazin-6-yl)-5-(5-(trifluoromethyl)pyrimidin-2-yl)-5H-pyrrolo[2,3-d]pyrimidin-6(7H)-one]
8 | 28.5 nM | CCCCc1nc(-c2nc(N)c3c(n2)NC(=O)C3(c2ccc(C)cn2)C2CC2)cn2ncnc12 (racemic) [Example 72B, 4-amino-2-(8-butyl-[1,2,4]triazolo[1,5-a]pyrazin-6-yl)-5-cyclopropyl-5-(5-methylpyridin-2-yl)-5H-pyrrolo[2,3-d]pyrimidin-6(7H)-one]
9 | 128 nM | Nc1nc(-c2cn3ncnc3c(CCCC(F)(F)F)n2)nc2c1C(c1ccc(C(F)(F)F)cn1)(C1CC1)C(=O)N2 (single isomer, unassigned) [Example 2A, 4-Amino-5-cyclopropyl-2-(8-(4,4,4-trifluorobutyl)-[1,2,4]triazolo[1,5-a]pyrazin-6-yl)-5-(5-(trifluoromethyl)pyridin-2-yl)-5H-pyrrolo[2,3-d]pyrimidin-6(7H)-one]
10 | 219 nM | Cc1nnc(C2(C)C(=O)Nc3nc(-c4cn5ncnc5c(CCC(F)(F)C(F)(F)F)n4)nc(N)c32)o1 (single isomer, unassigned) [Example 97B, 4-Amino-5-methyl-5-(5-methyl-1,3,4-oxadiazol-2-yl)-2-(8-(3,3,4,4,4-pentafluorobutyl)-[1,2,4]triazolo[1,5-a]pyrazin-6-yl)-5H-pyrrolo[2,3-d]pyrimidin-6(7H)-one]
11 | 488 nM | Nc1nc(-c2cn3ncnc3c(CCCC(F)(F)F)n2)nc2c1C(c1ncc(C(F)(F)F)cn1)(C1CC1)C(=O)N2 (single isomer, unassigned) [Example 180B, 4-amino-5-cyclopropyl-2-(8-(4,4,4-trifluorobutyl)-[1,2,4]triazolo[1,5-a]pyrazin-6-yl)-5-(5-(trifluoromethyl)pyrimidin-2-yl)-5,7-dihydro-6H-pyrrolo[2,3-d]pyrimidin-6-one]
12 | 40.4 nM | CC1(c2ccc(Cl)cn2)C(=O)Nc2nc(-c3cn4ncnc4c(CCC(F)(F)C(F)(F)F)n3)nc(N)c21 (stereo not drawn) [Example 3A, 4-amino-5-(5-chloropyridin-2-yl)-5-methyl-2-(8-(3,3,4,4,4-pentafluorobutyl)-[1,2,4]triazolo[1,5-a]pyrazin-6-yl)-5H-pyrrolo[2,3-d]pyrimidin-6(7H)-one]
13 | 20.9 nM | CC1(c2ccc(Cl)c(F)c2)C(=O)Nc2nc(-c3cn4ncnc4c(CCC(F)(F)C(F)(F)F)n3)nc(N)c21 (stereo not drawn) [Example 5B, 4-amino-5-(4-chloro-3-fluorophenyl)-5-methyl-2-(8-(3,3,4,4,4-pentafluorobutyl)-[1,2,4]triazolo[1,5-a]pyrazin-6-yl)-5H-pyrrolo[2,3-d]pyrimidin-6(7H)-one]
14 | 27 nM | Nc1nc(-c2cn3ncnc3c(CCC(F)(F)C(F)(F)F)n2)nc2c1C(c1ccc(F)c(F)c1)(C1CC1)C(=O)N2 (stereo not drawn) [Example 6A, 4-amino-5-cyclopropyl-5-(3,4-difluorophenyl)-2-(8-(3,3,4,4,4-pentafluorobutyl)-[1,2,4]triazolo[1,5-a]pyrazin-6-yl)-5H-pyrrolo[2,3-d]pyrimidin-6(7H)-one]
15 | 41.4 nM | Nc1nc(-c2cn3ncnc3c(CCC(F)(F)C(F)(F)F)n2)nc2c1C(c1ccc(Cl)cn1)(C1CC1)C(=O)N2 (stereo not drawn) [Example 7A, 4-amino-5-(5-chloropyridin-2-yl)-5-cyclopropyl-2-(8-(3,3,4,4,4-pentafluorobutyl)-[1,2,4]triazolo[1,5-a]pyrazin-6-yl)-5H-pyrrolo[2,3-d]pyrimidin-6(7H)-one]
